Measurements from US20200093128A1, “ACIDULATED SURFACTANT COMPOSITIONS AND METHODS OF REDUCING MICROBIAL LOAD” (The United States of America, as represented by the …, priority 2018, published 2020).
Like-named read-outs stand apart in the source and are kept apart here. Marks after values point to notes of the source that are not given here.

Assays:
Salmonella [1] = conditions: Parsley, Cl 100 PPM, 5 min, Lapidot et al. (2006); cited from earlier work
[2] = tested on: S. enterica, L. monocytogenes or E. coli O157:H7; experiment: BS EN 1276 chlorine test, summary over the three pathogens; assay type: cell-based; conditions: 48 ppm chlorine, 5 min, 3% bovine albumin (dirty conditions)
Salmonella [3] = experiment: BS EN 1276 test for sanitizer efficacy of NaClO; assay type: cell-based, S. enterica; conditions: 0.03% bovine serum, 5 min, 22±1° C.
Excerpt: (§1) This example illustrates an embodiment of the effectiveness of the inventive composition. […]. The four most acid-resistant strains out of the fourteen were selected for use in this study. These four strains consisted of cattle isolate #'s 199, 758, 851, and 859, provided by Dr. T. G. Nagaraja (Distinguished Microbiology Professor, Kansas State University, Department of Veterinary Medicine). Five outbreak strains of Listeria monocytogenes were used, including L499, L502, L008, L2624, and L2625, provided by Dr. Bassam Annous (USDA-ARS-ERRC). Four serovars of S. enterica (Salmonella Newport H1275 (ERRC culture collection)), St. Paul 02-517-1 (cantaloupe outbreak), Stanley H0558 (CDC stool sample, 1995 sprout outbreak), and Montevideo G4639 (1993 tomato outbreak)) were also utilized. All isolates (except for the L. monocytogenes outbreak strains) were selected for spontaneous mutants resistant to 100 ppm of the antibiotic compound nalidixic acid (L. monocytogenes is naturally resistant to 100 ppm nalidixic acid and so was plated on media containing 100 ppm nalidixic acid without need for selection of spontaneous mutants). Isolates were individually incubated for 24 h at 37° C. in 10 mL of Tryptic Soy Broth (Difco, Sparks, Md.)+100 ppm nalidixic acid (TSBN), as an antimicrobial marker and to preclude potential contamination on plates. Suspensions were centrifuged at 1980×g for 10 min, and resuspended in 5 ml of sterile deionized water and vortexed vigorously for 3 minutes. All strains of each individual species of bacteria were composited in a single sterile 500 mL beaker for inoculation of grape tomatoes. […]

EHEC & Salmonella = conditions: Lettuce, Cl 200 PPM, cited from earlier work
Salmonella [4] = assay type: cell-based, S. enterica; conditions: dip-inoculated grape tomatoes, 100 ml wash, 2 min
Excerpt: as §1, with “plates.” for “plates. Suspensions were centrifuged at 1980×g for 10 min, and resuspended in 5 ml of sterile deionized water and vortexed vigorously for 3 minutes. All strains of each individual species of bacteria were composited in a single sterile 500 mL beaker for inoculation of grape tomatoes.”

E. coli = conditions: Cl 100 PPM, 10.0 min, cited from earlier work
E. coli O157:H7 [5] = assay type: cell-based; conditions: dip-inoculated grape tomatoes, 100 ml wash, 2 min
Excerpt: as §1, with “plates.” for “plates. Suspensions were centrifuged at 1980×g for 10 min, and resuspended in 5 ml of sterile deionized water and vortexed vigorously for 3 minutes. All strains of each individual species of bacteria were composited in a single sterile 500 mL beaker for inoculation of grape tomatoes.”

Listeria innocua = conditions: Lettuce, Cl 10 PPM, 5.0 min, Francis and O'Beime (2002); cited from earlier work
[6] = tested on: Salmonella, E. coli, Listeria monocytogenes, coliforms or aerobic mesophilic bacteria; experiment: Previous studies: produce treated with NaClO, summary of Table 1; assay type: cell-based; conditions: Table 1 studies, average 154.2 ppm free chlorine, average treatment time 5.42 min
[7] = tested on: Salmonella and E. coli O157:H7; conditions: strawberries, 6.44 pH-adjusted free chlorine, 198 ppm; cited from earlier work
EHEC = conditions: cited from earlier work
E. coli O157:H7 [8] = experiment: BS EN 1276 test for sanitizer efficacy of NaClO; assay type: cell-based; conditions: 0.03% bovine serum, 5 min, 22±1° C.
Excerpt: (§2) This example illustrates an embodiment of the effectiveness of the inventive composition. […]. The four most acid-resistant strains out of the fourteen were selected for use in this study. These four strains consisted of cattle isolate #'s 199, 758, 851, and 859, provided by Dr. T. G. Nagaraja (Distinguished Microbiology Professor, Kansas State University, Department of Veterinary Medicine). Five outbreak strains of Listeria monocytogenes were used, including L499, L502, L008, L2624, and L2625, provided by Dr. Bassam Annous (USDA-ARS-ERRC). Four serovars of S. enterica (Salmonella Newport H1275 (ERRC culture collection)), St. Paul 02-517-1 (cantaloupe outbreak), Stanley H0558 (CDC stool sample, 1995 sprout outbreak), and Montevideo G4639 (1993 tomato outbreak)) were also utilized. All isolates (except for the L. monocytogenes outbreak strains) were selected for spontaneous mutants resistant to 100 ppm of the antibiotic compound nalidixic acid (L. monocytogenes is naturally resistant to 100 ppm nalidixic acid and so was plated on media containing 100 ppm nalidixic acid without need for selection of spontaneous mutants). Isolates were individually incubated for 24 h at 37° C. in 10 mL of Tryptic Soy Broth (Difco, Sparks, Md.)+100 ppm nalidixic acid (TSBN), as an antimicrobial marker and to preclude potential contamination on plates. Suspensions were centrifuged at 1980×g for 10 min, and resuspended in 5 ml of sterile deionized water and vortexed vigorously for 3 minutes. All strains of each individual species of bacteria were composited in a single sterile 500 mL beaker for inoculation of grape tomatoes.
(§3) L. monocytogenes was plated on Thermo Scientific™ Brilliance™ Listeria Agar (BLA, ThermoFisher Scientific, Fairlawn, N.J.)+100 ppm nalidixic acid without the addition of BLA antimicrobial supplements+0.1% sodium pyruvate (to aid in recovering injured cells) (see e.g., Gurtler, J. B. & L. R. Beuchat, (2005) Appl. Environ. Microbiol. 71:7661-7669; Gurtler, J. B. & Kornacki, J. L. (2009) Lett. Appl. Microbiol. 49:503-509; Wesche, A. M., et al. (2009) J. Food Prot. 72, 1121-1138). Salmonella was plated on tryptic soy agar (Difco)+100 mg/L nalidixic acid+0.1% sodium pyruvate+80 mg/L X-α-Gal (5-Bromo-4-Chloro-3-indolyl-α-D-galactopyranoside) (Research Products Intl., Mt. Prospect, Ill.)+100 mg/L Isopropyl-β-D-thiogalactopyranoside (IPTG, Fisher Scientific). X-α-Gal induces a green color change by salmonellae colonies. E. coli O157:H7 was plated tryptic soy agar (Difco)+100 mg/L nalidixic acid+0.1% sodium pyruvate+175 mg/L red/salmon-Gal (6-Chloro-3-indolyl-β-D-galactopyranoside)+100 mg/L IPTG. Red/salmon-Gal induces a pink color change by E. coli colonies.
(§4) BS EN 1276 Test for Sanitizer Efficacy of Sodium Hypochlorite (NaClO). The British Standard, European Normalization Method 1276 for sanitizers was chosen to evaluate the efficacy low level NaClO. The level of free chlorine ranged from 10 to 48 ppm free chlorine, as tested with the LaMotte Model CL-BR 3624 titration kit (Chestertown, Md.). The BS EN 1276 method as well as the French AFNOR NFT 72170 method has been traditionally used to evaluate sanitizer effectiveness (see e.g., Jacquet, C., and Reynaud, A. (1994) Int. J. Food Microbiol. 22:79-83; Taylor, J. H., et al. (1999) Int. J. Appl. Microbiol. 87:718-725). The BS EN 1276 method involves adding 0.03% bovine albumin to represent clean conditions and 0.3% albumin for dirty conditions. Briefly, 1 ml of either 0.03% or 0.3% bovine serum was added to a sterile 15 ml test tube, followed by 1 ml of the ca. 9 log CFU/ml test solution of each bacterial composite. The suspension was permitted to sit for 2 min and then 8 ml of an appropriately diluted NaClO solution was added to the 2 ml of bacteria-bovine solution suspension where concentrations of sanitizer solution were adjusted to mathematically account for the 2:8 dilution with the pathogen suspension at 10 ppm, 16 ppm, and 48 ppm. All tests were conducted at 22±1° C. […]

Listeria Monocytogenes = experiment: BS EN 1276 test for sanitizer efficacy of NaClO; assay type: cell-based; conditions: 0.03% bovine serum, 5 min, 22±1° C.
Excerpt: as §2, §3, §4

L. monocytogenes [9] = conditions: cited from earlier work
[10] = tested on: Salmonella and E. coli O157:H7; conditions: tomato stem scars, 200 ppm free chlorine, pH-unadjusted; cited from earlier work
L. monocytogenes [11] = assay type: cell-based, Listeria monocytogenes; conditions: dip-inoculated grape tomatoes, 100 ml wash, 2 min
Excerpt: as §1, with “plates.” for “plates. Suspensions were centrifuged at 1980×g for 10 min, and resuspended in 5 ml of sterile deionized water and vortexed vigorously for 3 minutes. All strains of each individual species of bacteria were composited in a single sterile 500 mL beaker for inoculation of grape tomatoes.”

Aerobic Bacteria = conditions: cited from earlier work
pH of wash solution = assay type: physicochemical; conditions: wash solutions of the grape tomato test (Table 4)
Total Coliforms [12] = conditions: watercress, 200 ppm NaOCl, pH-unadjusted; cited from earlier work
Total Coliforms [13] = conditions: Lettuce, Cl 200 PPM, 10 min, Nascimento et al. (2003); cited from earlier work

For `OCl` [NaClO, sodium hypochlorite], the Inactivation (Salmonella [1]) is given as 1.7 Log CFU, the inactivated log [2] is given as “less than 0.76 log” and the “log CFU/mL reduction” value (Salmonella [3]; 10 ppm free chlorine) is given as 1.20 B ± 0.10 log CFU/mL. The “log CFU/mL reduction” value (Salmonella [3]; 16 ppm free chlorine) was 2.72 A ± 0.53 log CFU/mL, the “log CFU/mL reduction” value (Salmonella [3]; 48 ppm free chlorine) was 0.25 ± 0.25 log CFU/mL and the Inactivation (EHEC & Salmonella; 1.0 min, Koseki et al. (2003)) was “ca. 1.0 Log CFU”. The Inactivation (EHEC & Salmonella; 10.0 min, Kondo et al. (2006)) was 1.2 Log CFU, the “reduction, Salmonella” value (Salmonella [4]) was 2.60 ± 0.25 B log CFU/g and the Inactivation (E. coli; Cabbage/Parsley, Seymot et al. (2002)) was “ca 1.45 Log CFU”. For the same compound, the Inactivation (E. coli; Lettuce, Seymor et al. 2002) was 0.72 Log CFU, the “reduction, E. coli O157:H7” value (E. coli O157:H7 [5]) was 2.92 ± 0.38 BC log CFU/g and the Inactivation (Listeria innocua) was 1.5 Log CFU. For the same compound, the “average log reduction in previous studies” value [6] was 1.24 log CFU, the “inactivated log CFU” value [7] was 1.86 log CFU and the Inactivation (EHEC; Lettuce & Spinach, Cl 600 PPM, 3.0 min, Niemera, 2007) was 0.5 Log CFU. The Inactivation (EHEC; Lettuce, Cl 20 PPM, 1.0 min, Li et al. (2001)) was 1.1 Log CFU, the “log CFU/mL reduction” value (E. coli O157:H7 [8]; 10 ppm free chlorine) was 0.64 B^a ± 0.32^b log CFU/mL and the “log CFU/mL reduction” value (E. coli O157:H7 [8]; 16 ppm free chlorine) was 1.79 A ± 0.21 log CFU/mL. For the same compound, the “log CFU/mL reduction” value (E. coli O157:H7 [8]; 48 ppm free chlorine) was 0.33 ± 0.47^c log CFU/mL, the “log CFU/mL reduction” value (Listeria Monocytogenes; 10 ppm free chlorine) was 1.22 B ± 0.19 log CFU/mL and the “log CFU/mL reduction” value (Listeria Monocytogenes; 16 ppm free chlorine) was 2.77 A ± 0.36 log CFU/mL. The “log CFU/mL reduction” value (Listeria Monocytogenes; 48 ppm free chlorine) was 0.53 ± 0.21 log CFU/mL, the Inactivation (L. monocytogenes [9]; Lettuce (4° C.), Cl 200 PPM, 10.0 min, Zhang & Farber (1996)) was 1.3 Log CFU and the Inactivation (L. monocytogenes [9]; Lettuce, Cl 20 PPM, 0.5 min, Li et al. (2002)) was 1.2 Log CFU. For the same compound, the Inactivation (L. monocytogenes [9]; Lettuce, Cl 100 PPM, 1.0 min, Hellstrom et al. (2006)) was 0.7 Log CFU, the Inactivation (L. monocytogenes [9]; Lettuce, Cl 100 PPM, 5.0 min, Akbas and Oimez (2007)) was 1.7 Log CFU and the inactivation of pathogens [10] was 1.53 log. For the same compound, the “reduction, L. monocytogenes” value (L. monocytogenes [11]) was 3.16 ± 0.61 B log CFU/g, the Inactivation (Aerobic Bacteria; Diced Tomato, Cl 200 PPM, 0.5 min, Simmons et al. (2006)) was 0.00 Log CFU and the Inactivation (Aerobic Bacteria; Lettuce, Cl 75 PPM, 5 min, Lu et al. (2007)) was 2.0 Log CFU. The Inactivation (Aerobic Bacteria; Lettuce, Cl 150 PPM, 10 min, Koseki et al. (2001)) was 2.0 Log CFU, the Inactivation (Aerobic Bacteria; Lettuce, Cl 200 PPM, 0.5 min, Simmons et al. (2006)) was 1.30 Log CFU and the Inactivation (Aerobic Bacteria; Lettuce, Cl 200 PPM, 10.0 min, Kondo et al. (2006)) was 0.9 Log CFU. The “pH Values” (pH of wash solution) was 9.88, the inactivation of pathogens (Total Coliforms [12]) was 1.1 log and the Inactivation (Total Coliforms [13]) was less than 2.0 Log CFU.
